Here are results for 48 molecules from ChEMBL document CHEMBL1158595, “2' biaryl amides as novel and subtype selective M1 agonists. Part II: Further optimization and profiling” (Bioorg Med Chem Lett, 2010).

Test [1] addresses T1, Muscarinic acetylcholine receptor M1 (Homo sapiens, UniProt P11229).
T1 sequence (P11229 whole entry): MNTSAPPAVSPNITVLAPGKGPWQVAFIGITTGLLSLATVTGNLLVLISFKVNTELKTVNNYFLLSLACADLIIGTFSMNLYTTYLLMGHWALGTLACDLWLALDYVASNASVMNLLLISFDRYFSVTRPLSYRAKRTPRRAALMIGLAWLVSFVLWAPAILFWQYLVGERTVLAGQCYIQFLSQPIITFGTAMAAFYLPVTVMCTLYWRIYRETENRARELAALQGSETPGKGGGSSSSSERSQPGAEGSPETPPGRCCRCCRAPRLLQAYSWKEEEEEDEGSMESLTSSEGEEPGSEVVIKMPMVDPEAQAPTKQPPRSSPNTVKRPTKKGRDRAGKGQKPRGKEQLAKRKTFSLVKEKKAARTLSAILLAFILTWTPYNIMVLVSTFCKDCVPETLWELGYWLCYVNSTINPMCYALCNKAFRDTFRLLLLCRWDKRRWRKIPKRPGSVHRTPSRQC
Put plainly: Agonist activity at human muscarinic M1 receptor expressed in CHO cells assessed as effect on acetylcholine-induced intracellular calcium level by FLIPR assay. The class given is functional, cell-based. On the technique in general: Calcium flux is commonly read through the fluorescence of an indicator in the cells.

The target in test [2] is T2, Muscarinic acetylcholine receptor M1 (Homo sapiens) (UniProt P11229).
T2 sequence (whole entry): T1 sequence (P11229 whole entry)
Put plainly: Intrinsic activity at human muscarinic M1 receptor expressed in CHO cells assessed as effect on acetylcholine-induced intracellular calcium level by FLIPR assay relative to acetylcholine. The format is functional, cell-based.

For test [3], the target named is Muscarinic acetylcholine receptor M3 (Homo sapiens, UniProt P20309). Put plainly: Inhibition of human muscarinic M3 receptor expressed in CHO cells. The class given is cell-based.

Molecules are shown by their SMILES.

Muscarinic acetylcholine receptor M3, sequence (P20309 whole entry): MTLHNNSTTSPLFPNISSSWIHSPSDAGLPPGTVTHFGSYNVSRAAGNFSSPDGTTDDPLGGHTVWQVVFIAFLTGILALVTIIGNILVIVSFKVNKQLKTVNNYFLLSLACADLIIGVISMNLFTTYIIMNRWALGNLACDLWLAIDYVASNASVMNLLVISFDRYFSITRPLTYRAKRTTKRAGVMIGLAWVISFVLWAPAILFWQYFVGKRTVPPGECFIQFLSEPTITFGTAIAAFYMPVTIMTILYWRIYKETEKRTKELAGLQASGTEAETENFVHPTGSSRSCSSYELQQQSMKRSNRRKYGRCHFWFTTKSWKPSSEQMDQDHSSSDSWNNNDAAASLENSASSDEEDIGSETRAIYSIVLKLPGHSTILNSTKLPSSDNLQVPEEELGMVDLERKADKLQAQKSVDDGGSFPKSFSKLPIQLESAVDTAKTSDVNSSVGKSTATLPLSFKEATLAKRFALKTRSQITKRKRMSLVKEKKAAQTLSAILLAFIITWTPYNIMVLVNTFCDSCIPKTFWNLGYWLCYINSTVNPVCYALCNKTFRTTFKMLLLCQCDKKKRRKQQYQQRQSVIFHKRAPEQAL

As a reminder, the EC50 is the midpoint of the concentration-response curve. Consider `Clc1cccc(-c2ccccc2CNCC2CCNCC2)c1`, for which the EC50 in test [1] was over 10000 nM.

Broadly, the IC50 is the midpoint of a concentration-inhibition curve. High values mean weaker potency in that assay, low ones greater potency in that assay. Consider `C[C@H]1CNCC[C@H]1CNC(=O)c1c(F)cccc1-c1cccc(Cl)c1` (relative stereo), for which, in test [2], the Intrinsic activity is 92%. In test [3], this molecule showed a 50% inhibitory concentration (IC50) of 2510 nM. In addition, in test [1], the half-maximal effective concentration (EC50) is 20 nM.

`O=C(NCC1(F)CCNCC1)c1c(F)cccc1-c1cccc(Cl)c1`: the Intrinsic activity in test [2] turned out to be 87%. In addition, the half-maximal inhibitory concentration (IC50) in test [3] was 1260 nM. Moreover, the half-maximal effective concentration (EC50) in test [1] is 63.1 nM.

Consider `CS(=O)(=O)N(Cc1c(F)cccc1-c1cccc(Cl)c1)CC1CCNCC1`, for which, in test [2], the Intrinsic activity stood at 51%. Moreover, the EC50 in test [1] was 1580 nM.

Consider `O=S(=O)(NCC1CCNCC1)c1ccccc1-c1cccc(Cl)c1`, for which the EC50 in test [1] is over 10000 nM.

As for `CC1CNCC=C1CNC(=O)c1c(-c2cccc(Cl)c2)ccc(Cl)c1F` (configuration not stated), in test [2], the Intrinsic activity came out at 72%. The 50% effective concentration (EC50) in test [1] was 158 nM.

For the molecule `O=C(Cc1ccccc1-c1cccc(Cl)c1)NC1CCNCC1`, in test [2], the Intrinsic activity is 74%. Further, the IC50 in test [3] is 126 nM. In test [1], the EC50 is 158 nM.

In the case of `OC(CCC1CCNCC1)c1ccccc1-c1cccc(Cl)c1` (configuration not stated), in test [2], the Intrinsic activity amounted to 100%. Further, 2 nM corresponded to half-maximal inhibition in test [3] (IC50). Besides, the concentration giving a half-maximal response (EC50) in test [1] was 1 nM.

`CC(=O)N(Cc1ccccc1-c1cccc(Cl)c1)CC1CCNCC1`: the Intrinsic activity in test [2] was found to be 70%. In addition, the concentration giving a half-maximal response (EC50) in test [1] is 398 nM.

As to `O=C(NCC1CCNCC1)c1cnccc1-c1cccc(Cl)c1`, the Intrinsic activity in test [2] turned out to be 20%. Further, the 50% effective concentration (EC50) in test [1] was over 10000 nM.

For `O=C(NCC1=C(F)CNCC1)c1c(-c2cccc(Cl)c2)ccc(Cl)c1F`, the Intrinsic activity in test [2] turned out to be 74%. The molecule also had an IC50 in test [3] of 10000 nM. Further, in test [1], the EC50 is 158 nM.

As to `O=C(NCC1CCNCC1)c1c(F)cccc1-c1cccc(Cl)c1`, the Intrinsic activity in test [2] was found to be 90%. In test [1], the EC50 was 15.8 nM.

`O=C(NCc1ccccc1-c1cccc(Cl)c1)C1CCNCC1`: the Intrinsic activity in test [2] worked out at 81%. Half-maximal inhibition in test [3] (IC50) required 2000 nM. Also, the 50% effective concentration (EC50) in test [1] was 501 nM.

Consider `Cc1ccc(-c2cccc(Cl)c2)c(C(=O)NCC2CCNCC2)c1`, for which, in test [2], the Intrinsic activity was 67%. Besides, the EC50 in test [1] is 1000 nM.

As to `O=C(NCC1CCNCC1)c1c(-c2cccc(Cl)c2)ccc(Cl)c1F`, the Intrinsic activity in test [2] came out at 80%. Further, the concentration for a half-maximal effect (EC50) in test [1] was 25.1 nM.

Regarding `O=C(NCC1CCNCC1)c1ccc(F)cc1-c1cccc(Cl)c1`, the Intrinsic activity in test [2] came to 24%. The EC50 in test [1] was over 10000 nM.

For the molecule `O=C(NCC1CCNCC1)c1cccc(Cl)c1-c1cccc(Cl)c1`, the Intrinsic activity in test [2] came to 14%. The concentration for a half-maximal effect (EC50) in test [1] is over 10000 nM.

On to `O=C(NCC1CCNCC1)c1cc(Cl)ccc1-c1cccc(Cl)c1`, for which the Intrinsic activity in test [2] is 74%. The half-maximal effective concentration (EC50) in test [1] is 100 nM.

As for `O=C(CC1CCNCC1)Nc1ccccc1-c1cccc(Cl)c1`, in test [2], the Intrinsic activity was found to be 43%. The EC50 in test [1] is 7940 nM.

Turning to `Clc1cccc(-c2ccccc2OCCC2CCNCC2)c1`, the EC50 in test [1] is over 10000 nM.

Turning to `Cc1cccc(-c2cccc(Cl)c2)c1C(=O)NCC1CCNCC1`, in test [2], the Intrinsic activity was 37%. The EC50 in test [1] was over 10000 nM.

For the molecule `O=C(NCC1CCNCC1)c1cccc(F)c1-c1cccc(Cl)c1`, the Intrinsic activity in test [2] turned out to be 45%. For the same molecule, the EC50 in test [1] is 5010 nM.

On to `O=C(NCC1CCNCC1)c1c(F)cccc1-c1cc(Cl)ccc1Cl`, for which the Intrinsic activity in test [2] was 92%. This molecule showed an IC50 in test [3] of 1260 nM. Besides, in test [1], the EC50 was 31.6 nM.

Regarding `Cn1cc(-c2cccc(Cl)c2)c(C(=O)NCC2CCNCC2)n1`, the Intrinsic activity in test [2] amounted to 0%. In addition, the EC50 in test [1] was over 10000 nM.

In the case of `O=C(NCC1CCNCC1)c1c(Cl)cccc1-c1cccc(Cl)c1`, the Intrinsic activity in test [2] came out at 109%. Also, the half-maximal effective concentration (EC50) in test [1] was 63.1 nM.

With `O=C(OCC1CCNCC1)c1ccccc1-c1cccc(Cl)c1`, the EC50 in test [1] was over 10000 nM.

On to `O=C(NCC1CCNCC1)c1sccc1-c1cccc(Cl)c1`, for which the Intrinsic activity in test [2] amounted to 0%. In test [1], the EC50 is over 10000 nM.

As for `Cc1cccc(C(=O)NCC2CCNCC2)c1-c1cccc(Cl)c1`, the Intrinsic activity in test [2] is 34%. In addition, the concentration giving a half-maximal response (EC50) in test [1] is over 10000 nM.

As for `Fc1cccc(-c2cccc(Cl)c2)c1-c1noc(CC2CCNCC2)n1`, in test [1], the EC50 is over 10000 nM.

Consider `O=S(=O)(CCC1CCNCC1)c1ccccc1-c1cccc(Cl)c1`, for which the Intrinsic activity in test [2] came out at 71%. The IC50 in test [3] is 20 nM. Besides, the EC50 in test [1] is 63.1 nM.

As to `O=C(NC[C@H]1CCNC[C@H]1F)c1c(F)cccc1-c1cccc(Cl)c1`, in test [2], the Intrinsic activity worked out at 68%. Moreover, in test [3], the 50% inhibitory concentration (IC50) was 10000 nM. Besides, the EC50 in test [1] was 158 nM.

For `CN(Cc1ccccc1-c1cccc(Cl)c1)C(=O)C1CCNCC1`, the EC50 in test [1] is over 10000 nM.

`Cc1ccc(C(=O)NCC2CCNCC2)c(-c2cccc(Cl)c2)c1`: the Intrinsic activity in test [2] turned out to be 77%. Moreover, the EC50 in test [1] was 158 nM.

Take `Clc1cccc(-c2ccccc2/C=C/CC2CCNCC2)c1`: in test [2], the Intrinsic activity came out at 55%. Also, half-maximal inhibition in test [3] (IC50) was put at 12.6 nM. In test [1], the half-maximal effective concentration (EC50) is 1000 nM.

Turning to `CN(CC1CCNCC1)S(=O)(=O)c1ccccc1-c1cccc(Cl)c1`, the half-maximal effective concentration (EC50) in test [1] was over 10000 nM.

Regarding `CC[C@H]1CNCC[C@@H]1CNC(=O)c1c(F)cccc1-c1cccc(Cl)c1`, the Intrinsic activity in test [2] was 92%. Further, the IC50 in test [3] was 10000 nM. Moreover, in test [1], the EC50 was 39.8 nM.

Consider `O=C(NCC1CCNCC1)c1ccncc1-c1cccc(Cl)c1`, for which the Intrinsic activity in test [2] came to 3%. Also, in test [1], the half-maximal effective concentration (EC50) is over 10000 nM.

As to `O=C(NCC1CCNCC1)c1cccnc1-c1cccc(Cl)c1`, the Intrinsic activity in test [2] worked out at 0%. For the same molecule, the EC50 in test [1] is over 10000 nM.

In the case of `Clc1cccc(-c2ccccc2COCC2CCNCC2)c1`, the EC50 in test [1] was over 10000 nM.

`O=C(NCCC1CCNCC1)c1ccccc1-c1cccc(Cl)c1`: in test [2], the Intrinsic activity worked out at 52%. The EC50 in test [1] was 3160 nM.

Consider `O=C(NCC1CCNCC1)c1ccc(Cl)cc1-c1cccc(Cl)c1`, for which the Intrinsic activity in test [2] is 79%. For the same molecule, in test [1], the EC50 is 100 nM.

As to `O=C(CCC1CCNCC1)c1ccccc1-c1cccc(Cl)c1`, the EC50 in test [1] is over 10000 nM.

On to `O=C(NCC1CCNCC1)c1ncccc1-c1cccc(Cl)c1`, for which the Intrinsic activity in test [2] is 18%. Also, the EC50 in test [1] is over 10000 nM.

On to `O=C(NCC1CCNCC1)c1cc(F)ccc1-c1cccc(Cl)c1`, for which, in test [2], the Intrinsic activity is 78%. For the same molecule, the EC50 in test [1] was 50.1 nM.

Consider `Fc1cccc(-c2cccc(Cl)c2)c1-c1noc(C2CCNCC2)n1`, for which the EC50 in test [1] was over 10000 nM.

For the molecule `Fc1cccc(-c2cc(Cl)ccc2Cl)c1-c1nc(C2CCNCC2)no1`, the Intrinsic activity in test [2] was 65%. In test [3], inhibition was half-maximal at 3980 nM (IC50). Further, in test [1], the EC50 was 501 nM.

Turning to `CN(C(=O)Cc1ccccc1-c1cccc(Cl)c1)C1CCNCC1`, the Intrinsic activity in test [2] worked out at 7.8%. The concentration giving a half-maximal response (EC50) in test [1] was 50.1 nM.

Take `CN(C(=O)CC1CCNCC1)c1ccccc1-c1cccc(Cl)c1`: the concentration for a half-maximal effect (EC50) in test [1] was over 10000 nM.
